Read-outs that look alike come from different tables or passages of the source. Residues, ends and D or L forms follow the SMILES beside them. *: point of attachment. X1 = O=C(c1ccc(C2(C(F)(F)F)N=N2)cc1)*
What was measured:
[1] = target: T1, mCRFR2β (Mus musculus, UniProt Q60748); assay: cAMP stimulation / inhibition of Svg-stimulated cAMP production in HEK-mCRFR2β cells; format: cell-based; set-up: Emax: dose or concentration left out as unconfirmed; conditions: for HEK-mCRFR2β cells rel. pot. (relative potency): Table 4, Svg alone = 1.00
T1 construct: expressed in transfected cells; host or cells: HEK 293 cells, stably transfected (HEK-mCRFR2β); membrane homogenates
Procedure: (§1) HEK-rCRFR1 cells or HEK-mCRFR2β cells were incubated with different CRF agonists in the presence or absence of 1 μM or 10 nM antagonist, or CRF antagonist (c=1 μM) alone. After removal of the medium, cells were lyzed with aqueous 6% trichloroacetic acid (5 min, 100° C.) (Rühmann, A., A. K. E. Köpke, F. M. Dautzenberg, and J. Spiess, Proc. Natl. Acad. Sci. USA 93: 10609-10613, 1996). The cell lysates were stored at −70° C. until assayed with a RIA kit (Amersham, Little Chalfont). […] Statistical significance was determined across groups with ANOVA, and significant differences between groups were determined by post hoc comparison using the Dunn test.
(§2) Intrinsic activities were measured at peptide concentrations generating maximal formation of cAMP in HEK-rCRFR1 or HEK-mCRFR2β cells.
Target sequence in this assay (Q60748 1-431 isoform Q60748-2): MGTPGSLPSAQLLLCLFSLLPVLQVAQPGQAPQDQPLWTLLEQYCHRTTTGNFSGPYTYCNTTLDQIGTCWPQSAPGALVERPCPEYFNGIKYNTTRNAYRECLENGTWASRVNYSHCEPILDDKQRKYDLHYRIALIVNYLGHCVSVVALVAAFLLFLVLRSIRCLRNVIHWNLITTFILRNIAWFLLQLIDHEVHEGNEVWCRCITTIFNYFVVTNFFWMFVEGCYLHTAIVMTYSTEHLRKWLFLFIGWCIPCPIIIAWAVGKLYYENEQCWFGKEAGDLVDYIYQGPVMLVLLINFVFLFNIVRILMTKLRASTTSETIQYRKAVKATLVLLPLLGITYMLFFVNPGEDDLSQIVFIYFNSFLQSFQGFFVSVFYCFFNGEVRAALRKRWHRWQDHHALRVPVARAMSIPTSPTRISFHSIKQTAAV

[2] = target: T1, mCRFR2β; assay: Displacement of [^125I-Tyr^0]Svg from membranes of HEK-mCRFR2β cells; format: binding; conditions: for Selectivity: Kd(rCRFR1)(peptide)/Kd(rCRFR1)(astressin) × Kd(mCRFR2β)(astressin)/Kd(mCRFR2β)(peptide)
Procedure: Binding assays were performed in 96-well MultiScreen plates (Millipore, Eschborn, Germany) with GF/B filters (pore size 1.0 μm). […] After incubation (60 min, 23° C.), membrane suspension was aspirated through the plate, followed by two washes with assay buffer (0.2 ml, 23°). Radioactivity of the punched filters was measured with a 1470 WIZARD automatic gamma counter (Berthold, Hannover). […] Statistical analysis was performed with ANOVA, and significant differences between groups were determined by post hoc comparison using the Dunn test.
Membrane homogenates of human embryonic kidney (HEK) 293 cells stably transfected with cDNA coding for rat CRF receptor, type 1 (rCRFR1) or mouse CRF receptor, type 2β (mCRFR2β) were prepared according to standard protocols (see, e.g., Sambrook et al., Molecular Cloning: A Laboratory Manual, 2nd. Edition, Cold Spring Habor Laboratory Press, Cold Spring Habor, N.Y., 1989; Ausubel et al., Current Protocols in Molecular Biology, Green Publishing Associates and Wiley Interscience, NY, 1989).

[3] = target: T2, rCRFR1 (Rattus norvegicus, UniProt P35353); assay: cAMP stimulation / inhibition of oCRF-stimulated cAMP production in HEK-rCRFR1 cells; format: cell-based; conditions: for HEK-rCRFR1 cells rel. pot. (relative potency): Table 4, 1 μM antagonist, cAMP production stimulated by 1 nM oCRF, oCRF alone = 1.00
T2 construct: expressed in transfected cells; host or cells: HEK 293 cells, stably transfected (HEK-rCRFR1)
T2 sequence (P35353 24-415): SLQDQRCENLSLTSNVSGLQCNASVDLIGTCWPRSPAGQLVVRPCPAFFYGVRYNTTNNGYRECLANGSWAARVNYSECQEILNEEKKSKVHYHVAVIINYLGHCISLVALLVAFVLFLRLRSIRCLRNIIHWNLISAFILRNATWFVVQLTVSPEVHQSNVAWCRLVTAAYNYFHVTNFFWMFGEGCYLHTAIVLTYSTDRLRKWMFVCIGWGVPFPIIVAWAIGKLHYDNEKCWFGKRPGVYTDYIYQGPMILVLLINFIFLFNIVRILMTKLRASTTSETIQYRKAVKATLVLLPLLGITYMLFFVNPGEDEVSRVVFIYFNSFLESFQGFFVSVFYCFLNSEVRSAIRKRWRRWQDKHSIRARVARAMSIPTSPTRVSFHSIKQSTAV
Procedure: as §1, §2

[4] = 10 nM antagonist, cAMP production stimulated by 1 nM Svg
[5] = read-out: HEK-mCRFR2β cells rel. IA (relative intrinsic activity)
[6] = read-out: mCRFR2β % IA (intrinsic activity)
[7] = read-out: HEK-rCRFR1 cells rel. IA (relative intrinsic activity)

CC[C@H](C)[C@H](NC(=O)[C@@H](NC(=O)[C@H](CC(=O)O)NC(=O)[C@H](CC(C)C)NC(=O)[C@H](CC(C)C)NC(=O)[C@H](CC(C)C)NC(=O)[C@H](CCCNC(=N)N)NC(=O)[C@H](CC(N)=O)NC(=O)[C@H](CC(N)=O)NC(=O)[C@H](C)NC(=O)[C@H](C)NC(=O)[C@H](CCC(N)=O)NC(=O)[C@H](CCC(N)=O)NC(=O)[C@H](CCCCN)NC(=O)[C@H](CCC(=O)O)NC(=O)[C@H](CCCCN)NC(=O)[C@H](CCC(=O)O)NC(=O)[C@H](CCC(N)=O)NC(=O)[C@H](CCCCN)NC(=O)[C@H](CCC(=O)O)NC(=O)[C@@H](NC(=O)[C@H](CCC(=O)O)NC(=O)[C@@H](NC(=O)[C@H](CCSC)NC(=O)[C@H](CCCCN)NC(=O)[C@H](CCCNC(=N)N)NC(=O)[C@H](CC(C)C)NC(=O)[C@H](CC(C)C)NC(=O)[C@H](CCC(=O)O)NC(=O)[C@H](CC(C)C)NC(=O)[C@H](CO)NC(=O)[C@H](CC(C)C)NC(=O)[C@H](CC(=O)O)NC(=O)[C@@H](NC(=O)[C@H](CO)NC(=O)[C@@H](NC(=O)[C@@H]1CCCN1C(=O)[C@@H]1CCCN1C(=O)CNC(=O)[C@@H]1CCC(=O)N1)[C@@H](C)CC)[C@@H](C)CC)[C@@H](C)CC)[C@@H](C)CC)[C@@H](C)O)C(N)=O [compound 2, Svg, reference compound]
mCRFR2β relative in vitro potency ([1]; Table 2, 10 nM antagonist, cAMP production stimulated by 1 nM Svg, Svg alone = 1.00 (lower = stronger inhibition)): 1.00
HEK-mCRFR2β cells rel. pot. (relative potency) [1, 4]: 1.00
Emax [1, 5]: 100%
Emax [1, 6]: 100%
Selectivity ([2]; Table 1): 0.109
Selectivity ([2]; Table 3): 0.109

CC[C@H](C)[C@H](NC(=O)[C@@H](NC(=O)[C@H](CC(=O)O)NC(=O)[C@H](CC(C)C)NC(=O)[C@H](CC(C)C)NC(=O)[C@H](CC(C)C)NC(=O)[C@H](CCCNC(=N)N)NC(=O)[C@H](CC(N)=O)NC(=O)[C@H](CC(N)=O)NC(=O)[C@H](C)NC(=O)[C@H](C)NC(=O)[C@H](CCC(N)=O)NC(=O)[C@H](CCC(N)=O)NC(=O)[C@H](CCCCN)NC(=O)[C@H](CCC(=O)O)NC(=O)[C@H](CCCCN)NC(=O)[C@H](CCC(=O)O)NC(=O)[C@H](CCC(N)=O)NC(=O)[C@H](CCCCN)NC(=O)[C@H](CCC(=O)O)NC(=O)[C@@H](NC(=O)[C@H](CCC(=O)O)NC(=O)[C@@H](NC(=O)[C@H](CCSC)NC(=O)[C@H](CCCCN)NC(=O)[C@H](CCCNC(=N)N)NC(=O)[C@H](CC(C)C)NC(=O)[C@H](CC(C)C)NC(=O)[C@H](Cc1c[nH]cn1)NC(=O)[C@H](N)Cc1ccccc1)[C@@H](C)CC)[C@@H](C)CC)[C@@H](C)O)C(N)=O [compound 11, [DPhe^11, His^12]Svg(11-40)]
Emax [1, 5]: 0.4 ± 0.1%
Emax [1, 6]: 0.4 ± 0.1%
Kd [2]: 1.4 ± 0.4 nM
Emax [3, 7]: 4 ± 1%
Emax ([3]; read-out: rCRFR1 % IA (intrinsic activity)): 4 ± 1%

CC[C@H](C)[C@H](NC(=O)[C@@H](NC(=O)[C@H](CC(=O)O)NC(=O)[C@H](CC(C)C)NC(=O)[C@H](CC(C)C)NC(=O)[C@H](CC(C)C)NC(=O)[C@H](CCCNC(=N)N)NC(=O)[C@H](CC(N)=O)NC(=O)[C@H](CC(N)=O)NC(=O)[C@H](C)NC(=O)[C@H](C)NC(=O)[C@H](CCC(N)=O)NC(=O)[C@H](CCC(N)=O)NC(=O)[C@H](CCCCN)NC(=O)[C@H](CCC(=O)O)NC(=O)[C@H](CCCCN)NC(=O)[C@H](CCC(=O)O)NC(=O)[C@H](CCC(N)=O)NC(=O)[C@H](CCCCN)NC(=O)[C@H](CCC(=O)O)NC(=O)[C@@H](NC(=O)[C@H](CCC(=O)O)NC(=O)[C@@H](NC(=O)[C@H](CCSC)NC(=O)[C@H](CCCCN)NC(=O)[C@H](CCCNC(=N)N)NC(=O)[C@H](CC(C)C)NC(=O)[C@H](CC(C)C)NC(=O)[C@H](Cc1c[nH]cn1)NC(=O)c1ccc(C2(C(F)(F)F)N=N2)cc1)[C@@H](C)CC)[C@@H](C)CC)[C@@H](C)O)C(N)=O [compound 17, ATB-[His^12]Svg(12-40)] (X1-HLLRKMIEIEKQEKEKQQAANNRLLLDTI-NH2)
HEK-mCRFR2β cells rel. pot. (relative potency) [1, 4]: 0.48 ± 0.04
Emax [1, 5]: 0.7 ± 0.2%
Kd [2]: 3.1 ± 0.2 nM
Selectivity ([2]; Table 3): 32.26
HEK-rCRFR1 cells rel. pot. (relative potency) [3]: 0.54 ± 0.06
Emax [3, 7]: 15 ± 1%

CC[C@H](C)[C@H](NC(=O)[C@@H](NC(=O)[C@H](CC(=O)O)NC(=O)[C@H](CC(C)C)NC(=O)[C@H](CC(C)C)NC(=O)[C@H](CC(C)C)NC(=O)[C@H](CCCNC(=N)N)NC(=O)[C@H](CC(N)=O)NC(=O)[C@H](CC(N)=O)NC(=O)[C@H](C)NC(=O)[C@H](C)NC(=O)[C@H](CCC(N)=O)NC(=O)[C@H](CCC(N)=O)NC(=O)[C@H](CCCCN)NC(=O)[C@H](CCC(=O)O)NC(=O)[C@H](CCCCN)NC(=O)[C@H](CCC(=O)O)NC(=O)[C@H](CCC(N)=O)NC(=O)[C@H](CCCCN)NC(=O)[C@H](CCC(=O)O)NC(=O)[C@@H](NC(=O)[C@H](CCC(=O)O)NC(=O)[C@@H](NC(=O)[C@H](CCSC)NC(=O)[C@H](CCCCN)NC(=O)[C@H](CCCNC(=N)N)NC(=O)[C@H](CC(C)C)NC(=O)[C@H](CC(C)C)NC(=O)[C@H](Cc1c[nH]cn1)NC(=O)[C@@H](N)Cc1ccc(O)cc1)[C@@H](C)CC)[C@@H](C)CC)[C@@H](C)O)C(N)=O [compound 18, [Tyr^11, His^12]Svg(11-40)] (H-YHLLRKMIEIEKQEKEKQQAANNRLLLDTI-NH2; N-terminus assumed)
HEK-mCRFR2β cells rel. pot. (relative potency) [1, 4]: 0.37 ± 0.05
Emax [1, 5]: 0.8 ± 0.2%
Kd [2]: 4.9 ± 1.8 nM
Selectivity ([2]; Table 3): 31.64
HEK-rCRFR1 cells rel. pot. (relative potency) [3]: 0.79 ± 0.07
Emax [3, 7]: 3 ± 1%

CC[C@H](C)[C@H](NC(=O)[C@@H](NC(=O)[C@H](CC(=O)O)NC(=O)[C@H](CC(C)C)NC(=O)[C@H](CC(C)C)NC(=O)[C@H](CC(C)C)NC(=O)[C@H](CCCNC(=N)N)NC(=O)[C@H](CC(N)=O)NC(=O)[C@H](CC(N)=O)NC(=O)[C@H](C)NC(=O)[C@H](C)NC(=O)[C@H](CCC(N)=O)NC(=O)[C@H](CCC(N)=O)NC(=O)[C@H](CCCCN)NC(=O)[C@H](CCC(=O)O)NC(=O)[C@H](CCCCN)NC(=O)[C@H](CCC(=O)O)NC(=O)[C@H](CCC(N)=O)NC(=O)[C@H](CCCCN)NC(=O)[C@H](CCC(=O)O)NC(=O)[C@@H](NC(=O)[C@H](CCC(=O)O)NC(=O)[C@@H](NC(=O)[C@H](CCSC)NC(=O)[C@H](CCCCN)NC(=O)[C@H](CCCNC(=N)N)NC(=O)[C@H](CC(C)C)NC(=O)[C@H](CC(C)C)NC(=O)[C@H](CCC(=O)O)NC(=O)[C@@H](N)Cc1ccc(O)cc1)[C@@H](C)CC)[C@@H](C)CC)[C@@H](C)O)C(N)=O [compound 19, [Tyr^11]Svg(11-40)]
HEK-mCRFR2β cells rel. pot. (relative potency) [1, 4]: 0.67 ± 0.04
Emax [1, 5]: 0.7 ± 0.2%
Kd [2]: 20.8 ± 1.6 nM
Selectivity ([2]; Table 3): 32.97
HEK-rCRFR1 cells rel. pot. (relative potency) [3]: 0.82 ± 0.06
Emax [3, 7]: 9 ± 1%
